{"source": "patent US20020019374A1", "about": "“Salicylohydrazide derivatives, processes and intermediates for their preparation, compositions comprising them, and their use” (priority 2000, published 2002)"}
{"smiles": "C/C(=N\\NC(=O)c1cccc([N+](=O)[O-])c1O)c1ccccc1", "note": "[I-1, 3-nitrosalicylic (1-phenylethylidene)hydrazide]", "values": [{"measurement": "melting point", "result": "163 to 168", "unit": "°C"}]}
